Values of other authors in US20130116244A1, “PHAR[…] COMPOSITIONS” (AESICA FORMULATION DEVELOPMENT LIMITED, priority 2010, published 2013).

Experiments:
[1] = not given; remark: listed apart in the source
[2] = in vivo

Row | SMILES | time after which anticonvulsant/sedative effects wear off (typically) | duration of anticonvulsant/sedative effects (effects can last for) | diazepam dose equal in effect to lorazepam 1 mg (relative potency) [1] | half life [2]
1 | CN1C(=O)CN=C(c2ccccc2)c2cc(Cl)ccc21 [diazepam] | 15 to 30 min |  |  | 
2 | O=C1Nc2ccc(Cl)cc2C(c2ccccc2Cl)=NC1O (stereo not shown) [lorazepam, 7-chloro-5-(2-chlorophenyl)-1,3-dihydro-3-hydroxy-2H-1,4-benzodiazepin-2-one] |  | 12 to 24 h | 10 mg | 10 to 20 h
